# Assay results reported in US8835495B2, “Pharmaceutical composition comprising cyclobenzaprine and aceclofenac in association” (Incrementha P, D & I Pesquisa, Desenvolvimento e Inovacao …, priority 2006, dated 2014).
# Structures can show the parent of a compound that is named as a salt.
# Assay: Comparative stability study of cyclobenzaprine hydrochloride and aceclofenac together and isolated (opened glass flasks, oven)
# Format: physicochemical
# Settings: oven at 50° C. and 90% relative moisture, after 30 days
row,content of active ingredient(s) by chromatographic analysis,Compound
1,remained unaltered,"O=C(O)COC(=O)Cc1ccccc1Nc1c(Cl)cccc1Cl [aceclofenac, 2-[2-[2-[(2,6-dichlorophenyl)amino]phenyl]acetyl]oxyacetic acid]"
2,remained unaltered,"CN(C)CCC=C1c2ccccc2C=Cc2ccccc21 [cyclobenzaprine hydrochloride, 3-(5H-dibenzo[a,d]cyclohepten-5-ylidene)-N,N-dimethyl-1-propanamine]"
